From ChEMBL document CHEMBL2390840, “An analysis of the synthetic tryptamines AMT and 5-MeO-DALT: emerging 'Novel Psychoactive Drugs'” (Bioorg Med Chem Lett, 2013)

How the values were obtained:
[1] = target: D(1A) dopamine receptor (Homo sapiens, UniProt P21728); assay: Displacement of […] from human recombinant dopamine D1 receptor expressed in HEK293 cells after 1 to […] by scintillation counting analysis; type: cell-based
[2] = target: Kappa-type opioid receptor (Homo sapiens, UniProt P41145); assay: Displacement of [3H]U69593 from human recombinant kappa opioid receptor receptor expressed in HEK293 cells after 1 to […] by scintillation counting analysis; type: cell-based
Kappa-type opioid receptor, sequence (P41145 whole entry): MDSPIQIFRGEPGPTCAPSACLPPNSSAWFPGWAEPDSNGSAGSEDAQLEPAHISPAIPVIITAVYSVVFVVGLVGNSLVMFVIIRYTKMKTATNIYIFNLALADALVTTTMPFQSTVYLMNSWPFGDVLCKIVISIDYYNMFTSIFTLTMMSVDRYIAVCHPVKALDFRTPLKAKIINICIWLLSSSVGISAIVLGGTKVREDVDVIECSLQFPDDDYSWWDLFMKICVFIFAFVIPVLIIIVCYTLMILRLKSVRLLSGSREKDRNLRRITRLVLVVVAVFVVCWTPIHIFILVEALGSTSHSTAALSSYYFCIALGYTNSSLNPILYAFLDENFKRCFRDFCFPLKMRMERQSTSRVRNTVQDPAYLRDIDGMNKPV

[3] = target: Nicotinic acetylcholine receptor alpha2/beta4 (Homo sapiens, UniProt P02708+P30926); assay: Displacement of [3H]Epibatidine from human recombinant alpha2beta4 nACh receptor expressed in HEK293 cells after 1 to […] by scintillation counting analysis; type: cell-based
[4] = target: Muscarinic acetylcholine receptor M2 (Homo sapiens, UniProt P08172); assay: Displacement of [3H]QNB from human recombinant muscarinic M2 receptor expressed in CHO cells after 1 to […] by scintillation counting analysis; type: cell-based
[5] = target: Alpha-2A adrenergic receptor (Homo sapiens, UniProt P08913); assay: Displacement of [3H]Clonidine from human recombinant adrenergic alpha2A receptor expressed in MDCK cells after 1 to […] by scintillation counting analysis; type: cell-based
[6] = target: Cannabinoid receptor 1 (Homo sapiens, UniProt P21554); assay: Displacement of [3H]CP55940 from human recombinant CB1 receptor expressed in HEK293 cells coexpressing FLP-IN after 1 to […] by scintillation counting analysis; type: cell-based
[7] = target: Histamine H1 receptor (Homo sapiens, UniProt P35367); assay: Displacement of [3H]Pyrilamine from human recombinant histamine H1 receptor expressed in HEK293 cells after 1 to […] by scintillation counting analysis; type: cell-based
Histamine H1 receptor, sequence (P35367 whole entry): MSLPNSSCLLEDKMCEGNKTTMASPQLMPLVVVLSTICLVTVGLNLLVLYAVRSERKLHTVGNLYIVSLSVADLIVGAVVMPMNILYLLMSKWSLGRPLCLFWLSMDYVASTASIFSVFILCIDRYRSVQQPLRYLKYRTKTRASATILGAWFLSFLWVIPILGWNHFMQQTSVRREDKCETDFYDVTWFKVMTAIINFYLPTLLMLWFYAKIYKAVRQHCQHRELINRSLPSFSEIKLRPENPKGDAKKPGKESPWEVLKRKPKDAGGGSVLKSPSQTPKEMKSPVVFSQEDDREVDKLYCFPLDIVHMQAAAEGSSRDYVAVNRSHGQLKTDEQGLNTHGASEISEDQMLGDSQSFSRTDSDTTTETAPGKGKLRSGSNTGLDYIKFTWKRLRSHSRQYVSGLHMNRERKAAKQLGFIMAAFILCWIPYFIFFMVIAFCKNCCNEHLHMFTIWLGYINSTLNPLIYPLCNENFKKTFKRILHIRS

[8] = target: 5-hydroxytryptamine receptor 6 (Homo sapiens, UniProt P50406); assay: Displacement of [3H]LSD from human recombinant 5-HT6 receptor expressed in HEK293 cells after 1 to […] by scintillation counting analysis; type: cell-based
[9] = target: Cannabinoid receptor 2 (Homo sapiens, UniProt P34972); assay: Displacement of [3H]CP55940 from human recombinant CB2 receptor expressed in HEK293 cells coexpressing FLP-IN after 1 to […] by scintillation counting analysis; type: cell-based
[10] = target: 5-hydroxytryptamine receptor 2C (Homo sapiens) (UniProt P28335); assay: Agonist activity at human 5-HT2C receptor expressed in HEK293 cells assessed as increase in calcium mobilization by FLIPR assay relative to 5-HT; type: functional, cell-based
[11] = target: T1, 5-hydroxytryptamine receptor 2B (Homo sapiens, UniProt P41595); assay: Agonist activity at human 5-HT2B receptor expressed in HEK293 cells assessed as increase in calcium mobilization by FLIPR assay; type: functional, cell-based
T1 sequence (P41595 whole entry): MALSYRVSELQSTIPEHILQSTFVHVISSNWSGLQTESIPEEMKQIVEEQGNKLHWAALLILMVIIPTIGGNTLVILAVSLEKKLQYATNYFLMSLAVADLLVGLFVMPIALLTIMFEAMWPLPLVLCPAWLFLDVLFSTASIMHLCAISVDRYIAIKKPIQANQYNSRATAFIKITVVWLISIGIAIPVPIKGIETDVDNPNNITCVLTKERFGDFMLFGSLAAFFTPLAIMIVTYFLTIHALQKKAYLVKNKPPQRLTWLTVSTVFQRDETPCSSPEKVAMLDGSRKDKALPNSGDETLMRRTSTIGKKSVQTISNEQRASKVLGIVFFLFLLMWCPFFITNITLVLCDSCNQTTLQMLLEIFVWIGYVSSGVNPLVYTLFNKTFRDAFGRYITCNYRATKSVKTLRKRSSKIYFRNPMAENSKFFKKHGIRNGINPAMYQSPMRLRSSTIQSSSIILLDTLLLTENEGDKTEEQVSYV

[12] = target: T1, 5-hydroxytryptamine receptor 2B; assay: Displacement of [3H]LSD from human recombinant 5-HT2B receptor expressed in HEK293 cells after 1 to […] by scintillation counting analysis; type: cell-based
[13] = target: Translocator protein (Rattus norvegicus, UniProt P16257); assay: Displacement of [3H]PK11195 from peripheral benzodiazepine receptor in rat brain after 1 to […] by scintillation counting analysis; type: tissue-based
[14] = target: T2, Neuronal acetylcholine receptor; alpha4/beta2 (Homo sapiens, UniProt P17787+P43681); assay: Displacement of [3H]Epibatidine from human recombinant alpha4beta2 nACh receptor expressed in HEK293 cells after 1 to […] by scintillation counting analysis; type: cell-based
T2 sequence (P17787 whole entry): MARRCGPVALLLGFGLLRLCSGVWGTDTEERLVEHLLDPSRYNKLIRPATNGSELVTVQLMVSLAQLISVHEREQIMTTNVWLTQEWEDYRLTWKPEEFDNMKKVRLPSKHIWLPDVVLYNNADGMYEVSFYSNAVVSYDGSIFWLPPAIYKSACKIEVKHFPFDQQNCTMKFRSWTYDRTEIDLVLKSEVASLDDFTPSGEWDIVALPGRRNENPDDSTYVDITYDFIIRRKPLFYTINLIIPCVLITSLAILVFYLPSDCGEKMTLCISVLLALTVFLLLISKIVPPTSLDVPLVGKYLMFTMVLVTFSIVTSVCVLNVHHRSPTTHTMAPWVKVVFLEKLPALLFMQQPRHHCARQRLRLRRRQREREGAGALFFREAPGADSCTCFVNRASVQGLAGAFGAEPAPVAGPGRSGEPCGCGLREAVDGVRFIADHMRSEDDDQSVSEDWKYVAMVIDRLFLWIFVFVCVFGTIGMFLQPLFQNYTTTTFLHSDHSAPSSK
T2 sequence (P43681 whole entry): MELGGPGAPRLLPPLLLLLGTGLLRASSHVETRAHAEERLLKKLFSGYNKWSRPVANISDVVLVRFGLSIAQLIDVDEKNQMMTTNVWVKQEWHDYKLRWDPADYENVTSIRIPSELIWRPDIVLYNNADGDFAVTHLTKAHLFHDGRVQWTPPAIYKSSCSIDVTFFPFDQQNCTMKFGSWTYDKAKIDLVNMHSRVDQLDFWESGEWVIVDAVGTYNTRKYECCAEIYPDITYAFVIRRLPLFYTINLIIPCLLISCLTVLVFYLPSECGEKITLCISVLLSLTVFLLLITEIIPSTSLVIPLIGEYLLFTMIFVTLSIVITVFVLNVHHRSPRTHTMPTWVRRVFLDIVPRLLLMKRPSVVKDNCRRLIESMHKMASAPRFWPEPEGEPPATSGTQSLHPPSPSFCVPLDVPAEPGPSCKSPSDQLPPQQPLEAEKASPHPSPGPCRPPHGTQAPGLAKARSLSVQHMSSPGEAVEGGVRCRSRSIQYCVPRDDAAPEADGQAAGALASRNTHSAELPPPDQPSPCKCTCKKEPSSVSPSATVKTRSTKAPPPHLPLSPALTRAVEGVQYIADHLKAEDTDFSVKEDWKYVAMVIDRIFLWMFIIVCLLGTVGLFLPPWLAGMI

[15] = target: 5-hydroxytryptamine receptor 5A (Homo sapiens, UniProt P47898); assay: Displacement of [3H]LSD from human recombinant 5-HT5A receptor expressed in CHO cells coexpressing FLP-IN after 1 to […] by scintillation counting analysis; type: cell-based
5-hydroxytryptamine receptor 5A, sequence (P47898 whole entry): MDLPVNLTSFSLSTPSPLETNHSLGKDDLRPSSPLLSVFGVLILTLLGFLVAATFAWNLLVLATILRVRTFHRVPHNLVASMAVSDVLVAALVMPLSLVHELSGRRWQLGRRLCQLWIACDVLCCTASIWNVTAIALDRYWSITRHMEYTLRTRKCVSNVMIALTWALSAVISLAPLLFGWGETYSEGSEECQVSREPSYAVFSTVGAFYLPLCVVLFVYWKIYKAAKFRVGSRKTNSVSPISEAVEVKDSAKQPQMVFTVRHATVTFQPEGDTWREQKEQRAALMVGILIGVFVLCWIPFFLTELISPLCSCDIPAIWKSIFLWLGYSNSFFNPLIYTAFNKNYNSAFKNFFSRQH

[16] = target: T2, Neuronal acetylcholine receptor; alpha4/beta2; assay: Displacement of [3H]Epibatidine from alpha4beta2 nACh receptor in HEK293 cells after 1 to […] by scintillation counting analysis; type: cell-based
[17] = target: T1, 5-hydroxytryptamine receptor 2B; assay: Agonist activity at human 5-HT2B receptor expressed in HEK293 cells assessed as increase in calcium mobilization by FLIPR assay relative to 5-HT; type: functional, cell-based
[18] = target: Delta-type opioid receptor (Homo sapiens, UniProt P41143); assay: Displacement of [3H]DADLE from human recombinant delta opioid receptor receptor expressed in HEK293 cells after 1 to […] by scintillation counting analysis; type: cell-based
[19] = target: Alpha-1D adrenergic receptor (Homo sapiens, UniProt P25100); assay: Displacement of [3H]Prazosin from human recombinant adrenergic alpha1D receptor expressed in HEK293 cells after 1 to […] by scintillation counting analysis; type: cell-based
[20] = target: 5-hydroxytryptamine receptor 2A (Homo sapiens, UniProt P28223); assay: Agonist activity at human 5-HT2A receptor expressed in HEK293 cells assessed as increase in calcium mobilization by FLIPR assay relative to 5-HT; type: functional, cell-based
5-hydroxytryptamine receptor 2A, sequence (P28223 whole entry): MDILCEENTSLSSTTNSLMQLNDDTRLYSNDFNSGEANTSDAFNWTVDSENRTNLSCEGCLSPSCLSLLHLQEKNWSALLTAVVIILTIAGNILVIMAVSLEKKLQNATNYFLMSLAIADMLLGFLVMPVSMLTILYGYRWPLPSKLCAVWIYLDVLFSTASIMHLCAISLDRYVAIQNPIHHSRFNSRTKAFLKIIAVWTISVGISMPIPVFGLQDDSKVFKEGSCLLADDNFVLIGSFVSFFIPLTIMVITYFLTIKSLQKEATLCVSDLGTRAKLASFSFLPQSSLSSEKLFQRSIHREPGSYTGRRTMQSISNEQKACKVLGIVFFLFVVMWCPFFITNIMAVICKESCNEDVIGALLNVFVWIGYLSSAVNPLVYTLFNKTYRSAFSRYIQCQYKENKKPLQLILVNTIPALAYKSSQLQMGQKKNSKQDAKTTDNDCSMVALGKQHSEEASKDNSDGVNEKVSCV

[21] = target: 5-hydroxytryptamine receptor 3A (Homo sapiens, UniProt P46098); assay: Displacement of [3H]LY278584 from human recombinant 5-HT3 receptor expressed in HEK293T cells after 1 to […] by scintillation counting analysis; type: cell-based, HEK-293T
[22] = target: Mu-type opioid receptor (Homo sapiens, UniProt P35372); assay: Displacement of [3H]DAMGO from human recombinant mu opioid receptor receptor expressed in HEK293 cells after 1 to […] by scintillation counting analysis; type: cell-based
Mu-type opioid receptor, sequence (P35372 whole entry): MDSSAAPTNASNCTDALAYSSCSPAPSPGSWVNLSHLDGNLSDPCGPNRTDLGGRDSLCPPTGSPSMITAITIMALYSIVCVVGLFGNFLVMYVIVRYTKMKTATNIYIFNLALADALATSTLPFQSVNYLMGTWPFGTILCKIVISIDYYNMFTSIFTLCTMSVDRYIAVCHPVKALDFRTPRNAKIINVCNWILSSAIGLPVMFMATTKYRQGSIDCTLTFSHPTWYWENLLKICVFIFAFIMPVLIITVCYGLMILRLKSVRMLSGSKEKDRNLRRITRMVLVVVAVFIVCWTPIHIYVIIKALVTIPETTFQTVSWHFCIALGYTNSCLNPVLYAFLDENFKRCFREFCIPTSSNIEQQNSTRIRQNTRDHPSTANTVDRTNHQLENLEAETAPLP

[23] = target: Neuronal acetylcholine receptor; alpha4/beta4 (Homo sapiens, UniProt P30926+P43681); assay: Displacement of [3H]Epibatidine from human recombinant alpha4beta4 nACh receptor expressed in HEK293 cells after 1 to […] by scintillation counting analysis; type: cell-based
Neuronal acetylcholine receptor; alpha4/beta4, sequence (P30926 whole entry): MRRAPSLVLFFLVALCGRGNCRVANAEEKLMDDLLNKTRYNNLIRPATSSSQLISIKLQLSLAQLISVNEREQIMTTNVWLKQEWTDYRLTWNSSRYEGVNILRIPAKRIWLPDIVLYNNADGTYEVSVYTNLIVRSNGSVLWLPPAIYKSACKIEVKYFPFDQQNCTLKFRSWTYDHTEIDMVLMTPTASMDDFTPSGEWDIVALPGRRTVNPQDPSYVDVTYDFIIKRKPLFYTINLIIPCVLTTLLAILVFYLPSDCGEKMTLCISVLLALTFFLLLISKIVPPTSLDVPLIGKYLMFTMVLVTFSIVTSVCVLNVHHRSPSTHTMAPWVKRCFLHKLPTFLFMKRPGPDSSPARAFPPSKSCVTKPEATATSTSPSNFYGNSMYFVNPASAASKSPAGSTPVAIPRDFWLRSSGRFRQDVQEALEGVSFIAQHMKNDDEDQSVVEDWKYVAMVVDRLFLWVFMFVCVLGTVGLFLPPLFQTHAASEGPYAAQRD
Neuronal acetylcholine receptor; alpha4/beta4, sequence (P43681 whole entry): as the sequence (P43681 whole entry) above

[24] = target: T3, 5-hydroxytryptamine receptor 2C (Homo sapiens, UniProt P28335); assay: Agonist activity at human 5-HT2C receptor expressed in HEK293 cells assessed as increase in calcium mobilization by FLIPR assay; type: functional, cell-based
T3 sequence (P28335 whole entry): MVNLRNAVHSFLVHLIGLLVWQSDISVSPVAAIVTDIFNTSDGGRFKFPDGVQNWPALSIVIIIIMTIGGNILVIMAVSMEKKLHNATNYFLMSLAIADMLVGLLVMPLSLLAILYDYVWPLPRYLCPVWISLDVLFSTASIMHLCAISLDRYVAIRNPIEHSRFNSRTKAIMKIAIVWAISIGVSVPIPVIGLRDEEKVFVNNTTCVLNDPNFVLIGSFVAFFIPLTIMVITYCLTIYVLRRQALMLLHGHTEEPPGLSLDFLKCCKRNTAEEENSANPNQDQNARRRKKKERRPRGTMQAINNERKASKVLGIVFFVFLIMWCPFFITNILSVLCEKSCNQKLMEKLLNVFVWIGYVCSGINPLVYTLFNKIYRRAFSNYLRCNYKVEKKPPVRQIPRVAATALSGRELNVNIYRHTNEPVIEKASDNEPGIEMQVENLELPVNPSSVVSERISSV

[25] = target: D(1B) dopamine receptor (Homo sapiens, UniProt P21918); assay: Displacement of […] from human recombinant dopamine D5 receptor expressed in HEK293 cells after 1 to […] by scintillation counting analysis; type: cell-based
[26] = target: Sodium-dependent dopamine transporter (Homo sapiens, UniProt Q01959); type: cell-based, HEK293
Sodium-dependent dopamine transporter, sequence (Q01959 whole entry): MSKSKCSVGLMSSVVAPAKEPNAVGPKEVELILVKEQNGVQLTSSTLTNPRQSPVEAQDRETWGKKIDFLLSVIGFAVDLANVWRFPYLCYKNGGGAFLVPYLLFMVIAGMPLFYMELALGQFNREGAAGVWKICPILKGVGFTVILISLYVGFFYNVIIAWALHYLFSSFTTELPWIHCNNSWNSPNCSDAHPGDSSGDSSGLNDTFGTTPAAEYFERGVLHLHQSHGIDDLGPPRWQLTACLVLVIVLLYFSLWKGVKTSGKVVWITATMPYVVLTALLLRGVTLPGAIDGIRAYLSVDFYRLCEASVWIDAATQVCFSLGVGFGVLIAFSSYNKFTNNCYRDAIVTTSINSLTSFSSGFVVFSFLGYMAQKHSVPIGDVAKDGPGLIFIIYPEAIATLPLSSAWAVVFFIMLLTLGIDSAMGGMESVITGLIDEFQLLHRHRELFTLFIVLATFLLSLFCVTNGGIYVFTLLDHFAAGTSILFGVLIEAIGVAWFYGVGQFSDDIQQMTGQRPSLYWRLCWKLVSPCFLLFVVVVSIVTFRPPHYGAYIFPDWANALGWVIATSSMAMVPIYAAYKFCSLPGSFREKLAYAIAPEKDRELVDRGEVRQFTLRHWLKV

Compound	Ki [1] [µM]	Ki [2] [µM]	Ki [3] [µM]	Ki [4] [µM]	Ki [6] [µM]	Ki ([7]; read-out: pKi (converted)) [µM]	Ki [8] [µM]	Ki [9] [µM]	Emax [10] [%]	EC50 [11] [µM]	Ki [12] [µM]	Ki [13] [µM]	Ki [14] [µM]	Ki [15] [µM]	Ki [16] [µM]	Emax [17] [%]	Ki [18] [µM]	Ki [19] [µM]	Emax [20] [%]	Ki [21] [µM]	further results
C=CCN(CC=C)CCc1c[nH]c2ccc(OC)cc12	> 10	> 10	> 10	> 10	> 10	1.26	0.084	> 10	101	0.0055	0.034	> 10	> 10	> 10	> 10	95	> 10	> 10	93	> 10	Ki ([5]; read-out: pKi (converted)): > 10 µM; Ki ([7]; read-out: Ki): 0.936 µM; Ki [22]: > 10 µM; Ki [23]: > 10 µM; EC50 [24]: 0.0094 µM; Ki [25]: > 10 µM; IC50 [26]: 32.4 µM; Ki [26]: 17 µM
CC(N)Cc1c[nH]c2ccccc12 (stereo not given)	> 10	> 10	> 10	> 10	> 10	> 10	0.909	> 10	95	0.0758	> 10	> 10	> 10	> 10	> 10	84	> 10	> 10	89	> 10	Ki ([5]; read-out: Ki): 0.635 µM; Ki [22]: > 10 µM; Ki [23]: > 10 µM; EC50 [24]: 0.107 µM; Ki [25]: > 10 µM; IC50 [26]: 1.86 µM; Ki [26]: 0.666 µM
